Results reported in patent US11053226B2, “KRAS G12C inhibitors and methods of using the same” (Amgen Inc., priority 2018, dated 2021).
Read-outs that look alike come from different tables or passages of the source.

Legend:
[1] = target: GDP-bound KRAS protein (aa 1-169), containing both G12C and C118A amino acid substitutions (Homo sapiens (Human), UniProt P01116, C118A/G12C); assay: Coupled Nucleotide Exchange Assay; type: biochemical
Protocol: (§1) For compounds in Table 9, the following assay conditions were employed:
Coupled Nucleotide Exchange Assay:
The assay plates were then read on a PerkinElmer EnVision Multilabel Reader, using AlphaScreen® technology, and data were analyzed using a 4-parameter logistic model to calculate IC50 values.

[2] = test system: Phosphorylation of ERK1/2 in A549 cells; assay: Phospho-ERK1/2 MSD Assay (A549); type: cell-based; conditions: Homo sapiens
[3] = test system: Phosphorylation of ERK1/2 in MIA PaCa-2 cells; assay: Phospho-ERK1/2 MSD Assay; type: cell-based; conditions: Homo sapiens, MiaPaCa-2 cells
Protocol: as §1
Phospho-ERK1/2 MSD Assay:
Sixteen hours prior to compound treatment, MIA PaCa-2 cells were seeded in 96-well cell culture plates at a density of 25,000 cells/well and incubated at 37° C., 5% CO2. […] Following compound treatment, cells were stimulated with 10 ng/mL EGF (Roche 11376454001) for 10 min, washed with ice-cold Dulbecco's phosphate-buffered saline, no Ca^2+ or Mg^2+ (ThermoFisher Scientific 14190144), and then lysed in RIPA buffer (50 mM Tris-HCl pH 7.5, 1% Igepal, 0.5% sodium deoxycholate, 150 mM NaCl, and 0.5% sodium dodecyl sulfate) containing protease inhibitors (Roche 4693132001) and phosphatase inhibitors (Roche 4906837001). […] Assay plates were read on a Meso Scale Discovery Sector Imager 6000, and data were analyzed using a 4-parameter logistic model to calculate IC50 values.

[4] = read-out: Coupled Exchange IC50 (2 h), 2 h compound pre-incubation
[5] = read-out: Coupled Exchange IC50 (20 h), 20 h compound pre-incubation
[6] = A549, 4 h, read-out: pERK IC50 (4 h, A549), 4 h compound treatment
[7] = MIA PaCa-2, 4 h, read-out: pERK IC50 (4 h, MiaPaCa-2), 4 h compound treatment
[8] = read-out: pERK IC50 (4 h), 4 h compound treatment
[9] = MIA PaCa-2, read-out: pERK IC50 (4 h), 4 h compound treatment

GDP-bound KRAS protein (aa 1-169), containing both G12C and C118A amino acid substitutions, sequence (P01116 other isoform, or with tags, fused parts or gaps G12C/C118A): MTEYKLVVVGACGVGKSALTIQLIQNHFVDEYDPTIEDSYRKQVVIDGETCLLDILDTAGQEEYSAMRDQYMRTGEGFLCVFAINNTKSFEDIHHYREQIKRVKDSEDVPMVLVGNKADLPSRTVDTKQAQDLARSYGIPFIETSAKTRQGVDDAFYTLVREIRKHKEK

SMILES | IC50 [1, 4] [µM] | IC50 [1, 5] [µM] | IC50 [2, 6] [µM] | IC50 [3, 7] [µM] | IC50 [2, 8] [µM] | IC50 [3, 9] [µM] | IC50 ([1]; read-out: Coupled Exchange IC50 (5 min), 5 min compound pre-incubation) [µM]
C=CC(=O)N1CC(N(C)C(=O)Cn2c(C)c(C(=O)N3CCN(c4ccc([N+](=O)[O-])cn4)CC3)c3cc(Br)ccc32)C1 [Example 38] | 0.76 | 0.22 | > 100 | 3.33 |  |  | 
C=CC(=O)N1CC(NC(=O)Cn2c(C)c(C(=O)N3CCc4c(C)cc(Br)cc4C3)c3cc(Br)ccc32)C1 [Example 51] | 0.75 | 0.18 | > 100 | 4.82 |  |  | 
C=CC(=O)N1CC(NC(=O)Cn2cc(-c3c(O)cccc3F)c3cc(Cl)ccc32)C1 [Example 144] | 3.84 | 0.75 |  |  | > 100 | 46.8 | 
C=CC(=O)N1CC(N(C)C(=O)Cn2c(C3CC3)c(C(=O)N3CCc4c(cccc4OC)C3)c3cc(Cl)cc(C)c32)C1 [Example 4-3, 2-(5-Chloro-2-cyclopropyl-3-((5-methoxy-3,4-dihydro-2(1H)-isoquinolinyl)carbonyl)-7-methyl-1H-indol-1-yl)-N-methyl-N-(1-(2-propenoyl)-3-azetidinyl)acetamide] | 0.12 |  | 74.1 | 0.15 |  |  | 
C=CC(=O)N1CC(NC(=O)Cn2c(C)c(-c3ccccc3CN(C)C)c3cc(Cl)ccc32)C1 [Example 32] | 6.05 |  |  |  | > 100 | 2.73 | 202
C=CC(=O)N1CC(N2CCC(n3c(C)c(C(=O)N4CCc5c(cccc5OC)C4)c4cc(Br)ccc43)C2=O)C1 (stereo not shown) [Example 42] |  |  | > 33.3 | 3.78 |  |  | 
C=CC(=O)N1CC(NC(=O)Cn2c(C)c(C(=O)N3CCN(c4ccc(C#N)cn4)CC3)c3cc(Br)ccc32)C1 [Example 83] |  |  | > 100 | 13.6 |  |  | 
C=CC(=O)N1CC(N(CC)C(=O)Cn2c(C)c(C(=O)N3CCc4ccccc4C3C)c3cc(Br)cc(C)c32)C1 (stereo not shown) [Example 72] |  |  | 63.4 | 10.6 |  |  | 
C=CC(=O)N1CC(NC(=O)Cn2cc(C(=O)NCCOc3c(C)cccc3C)c3cc(Br)ccc32)C1 [Example 68] |  |  | > 100 | 8.81 |  |  | 
C=CC(=O)N1CC(NC(=O)Cn2cc(C(=O)N3CCN(c4ccc(C)cn4)CC3)c3cc(Br)ccc32)C1 [Example 45] |  |  | > 100 | 3.96 |  |  | 
C=CC(=O)N1CC(NC(=O)Cn2cc(C(=O)N3CCN(c4cccc(C)n4)CC3)c3cc(Br)ccc32)C1 [Example 48] |  |  | > 33.3 | 4.56 |  |  | 
C=CC(=O)N1CC(NC(=O)Cn2c(C3CC3)c(C(=O)N3CCOC(C)(c4ccccc4)C3)c3cc(Cl)cc(C)c32)C1 (stereo not shown) [Example 31] |  |  | > 100 | 2.7 |  |  | 
C=CC(=O)N1CC(NC(=O)Cn2c(C3CC3)c(C(=O)N3CCC(C)(C)C3)c3cc(Cl)cc(C)c32)C1 [Example 20] |  |  | > 100 | 1.94 |  |  | 
C=CC(=O)N1CC(NC(=O)Cn2c(C)c(C(=O)N3CCN(c4ccc(Br)cn4)CC3)c3cc(Br)ccc32)C1 [Example 34] |  |  | > 100 | 3.06 |  |  | 
C=CC(=O)N1CC(NC(=O)Cn2cc(C(=O)N3CCc4cc(C(=O)OC)ccc4C3)c3cc(Br)ccc32)C1 [Example 124] |  |  | > 100 | 32.9 |  |  | 
C=CC(=O)N1CC(NC(=O)Cn2cc(C(=O)NCCOc3c(C)cccc3C)c3cc(Cl)cc(Cl)c32)C1 [Example 37] |  |  | > 100 | 3.33 |  |  | 
C=CC(=O)N1CC(NC(=O)Cn2cc(C(=O)N3CCN(c4ccc(CN(C)C)cn4)CC3)c3cc(Br)ccc32)C1 [Example 159] |  |  | > 100 | 57.4 |  |  | 
C=CC(=O)N1CC(NC(=O)C(C)n2c(C)c(C(=O)N3CCc4c(cccc4OC)C3)c3cc(Cl)ccc32)C1 (stereo not shown) [Example 126] |  |  | 48.4 | 33.9 |  |  | 
C=CC(=O)N1CC(NC(=O)Cn2cc(C(=O)NCCc3nc4ccccc4n3C)c3cc(Br)ccc32)C1 [Example 174] |  |  | > 100 | > 100 |  |  | 
C=CC(=O)N1CC(NC(=O)Cn2c(C)c(C(=O)N3CCN(c4ccc(C#N)cn4)C[C@@H]3C)c3cc(Br)ccc32)C1 [Example 81] |  |  | > 100 | 12.5 |  |  | 
